Tests used:
[1] = test system: morningglory; assay: Test B pre/postemergence morningglory; type: in vivo, Ipomoea hederacea
In short: (§1)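 Herbicidal effect was estimated by eye on a ten-point control scale after plants spent twelve to sixteen days in a greenhouse following soil or foliar treatment. Foliar sprays targeted plants at one to four leaves; all doses were formulated in a non-phytotoxic solvent with surfactant.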

[2] = test system: corn; assay: Test B pre/postemergence corn; type: in vivo, Zea mays
In short: as §1

[3] = test system: blackgrass; assay: Test B pre/postemergence blackgrass; type: in vivo, Alopecurus myosuroides
In short: as §1

[4] = test system: smallflower flatsedge; assay: Test B flood test smallflower flatsedge; type: in vivo, Cyperus difformis
In short: (§2)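 Plants were grown to the 2-leaf stage before treatment with test chemical, then held in a greenhouse for twelve to sixteen days. Injury was visually rated against untreated controls on a 0–10 scale, where 0 is no effect and 10 is complete control.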

[5] = test system: velvetleaf; assay: Test B pre/postemergence velvetleaf; type: in vivo, Abutilon theophrasti
In short: as §1

[6] = test system: duck salad; assay: Test B flood test duck salad; type: in vivo, Heteranthera limosa
In short: as §2

[7] = test system: sugar beet; assay: Test B pre/postemergence sugar beet; type: in vivo, Beta vulgaris
In short: as §1

[8] = test system: bedstraw; assay: Test B pre/postemergence bedstraw; type: in vivo, Galium aparine
In short: as §1

[9] = test system: surinam grass; assay: Test B pre/postemergence surinam grass; type: in vivo, Brachiaria decumbens
In short: as §1

[10] = test system: cocklebur; assay: Test B pre/postemergence cocklebur; type: in vivo, Xanthium strumarium
In short: as §1

[11] = test system: pigweed; assay: Test B pre/postemergence pigweed; type: in vivo, Amaranthus retroflexus
In short: as §1

[12] = test system: giant foxtail; assay: Test B pre/postemergence giant foxtail; type: in vivo, Setaria faberii
In short: as §1

[13] = test system: rape; assay: Test B pre/postemergence rape; type: in vivo, Brassica napus
In short: as §1

[14] = test system: soybean; assay: Test B pre/postemergence soybean; type: in vivo, Glycine max
In short: as §1

[15] = test system: bamyardgrass; assay: Test B flood test barnyardgrass; type: in vivo, Echinochloa crus-galli
In short: as §2

[16] = test system: purple nutsedge; assay: Test B pre/postemergence purple nutsedge; type: in vivo, Cyperus rotundus
In short: as §1

[17] = Postemergence, Rate 62 g/ha, scale 0 to 10, 0 is no effect, 10 is complete control
[18] = Postemergence, Rate 125 g/ha, scale of 0 to 10 where 0 is no effect and 10 is complete control
[19] = Postemergence, Rate 250 g/ha, scale of 0 to 10, 0 is no effect, 10 is complete control
[20] = Postemergence, Rate 500 g/ha, scale of 0 to 10 where 0 is no effect and 10 is complete control
[21] = Preemergence, Rate 62 g/ha, scale 0 to 10 (0 no effect, 10 complete control)
[22] = Preemergence, Rate 125 g/ha, scale of 0 to 10 where 0 is no effect and 10 is complete control
[23] = Preemergence, Rate 500 g/ha, scale of 0 to 10 where 0 is no effect and 10 is complete control
[24] = Rate 62 g/ha, flood test species, Pre-emergence, visual evaluation after twelve to sixteen days
[25] = Rate 125 g/ha, under heading Pre-emergence, flood test species, visual evaluation after twelve to sixteen days
[26] = Rate 250 g/ha, Pre-emergence (flood test species), scale 0 to 10, 0 is no effect, 10 is complete control
[27] = Rate 500 g/ha, Pre-emergence section of Table B, 0 to 10 scale (0 no effect, 10 complete control)

In the case of CCC(C)n1c(=O)on(C(=O)N(c2ccccc2)C(C)C)c1=O (stereo not drawn) [Compound 611], the “Plant response rating, Morningglory” value [1, 17] is reported as 7, the “Plant response rating, Morningglory” value [1, 18] is reported as 8 and the “Morningglory plant response rating” value [1, 19] is reported as 8. The “Plant response rating, Morningglory” value [1, 20] was 8, the “Morningglory plant response rating” value [1, 21] was 0 and the “Morningglory plant response rating” value [1, 22] was 0. For the same compound, the “Plant response rating, Morningglory” value [1, 23] was 6, the “Plant response rating, Corn” value [2, 17] was 0 and the “Plant response rating, Corn” value [2, 18] was 0. The “Corn plant response rating” value [2, 19] was 4, the “Plant response rating, Corn” value [2, 20] was 6 and the “Corn plant response rating” value [2, 21] was 2. The “Corn plant response rating” value [2, 22] was 3, the “Corn plant response rating (0 to 10 scale)” value ([2]; Preemergence, Rate 250 g/ha) was 9 and the “Plant response rating, Corn” value [2, 23] was 9. For the same compound, the “Plant response rating, Blackgrass” value [3, 17] was 7, the “Plant response rating, Blackgrass” value [3, 18] was 9 and the “Blackgrass plant response rating” value [3, 19] was 9. For the same compound, the “Plant response rating, Blackgrass” value [3, 20] was 9, the “Blackgrass plant response rating” value [3, 21] was 9 and the “Blackgrass plant response rating” value [3, 22] was 9. The “Blackgrass plant response rating (0 to 10 scale)” value ([3]; Preemergence, Rate 250 g/ha) was 10, the “Blackgrass plant response rating” value [3, 23] was 10 and the “Plant response rating, S. Flatsedge (0 to 10 scale, 0 is no effect, 10 is complete control)” value [4, 24] was 0. For the same compound, the “S. Flatsedge plant response rating (0 to 10 scale, 0 is no effect, 10 is complete control)” value [4, 25] was 0, the “S. Flatsedge plant response rating” value [4, 26] was 0 and the “S. Flatsedge plant response rating” value [4, 27] was 0. The “Plant response rating, Velvetleaf” value [5, 17] was 0, the “Plant response rating, Velvetleaf” value [5, 18] was 3 and the “Velvetleaf plant response rating” value [5, 19] was 5. For the same compound, the “Plant response rating, Velvetleaf” value [5, 20] was 5, the “Velvetleaf plant response rating” value [5, 21] was 6 and the “Velvetleaf plant response rating” value [5, 22] was 6. The “Plant response rating, Velvetleaf” value [5, 23] was 8, the “Plant response rating, Ducksalad (0 to 10 scale, 0 is no effect, 10 is complete control)” value [6, 24] was 0 and the “Ducksalad plant response rating (0 to 10 scale, 0 is no effect, 10 is complete control)” value [6, 25] was 0. For the same compound, the “Ducksalad plant response rating” value [6, 26] was 0, the “Ducksalad plant response rating” value [6, 27] was 1 and the “Plant response rating, Sugarbeets” value [7, 17] was 0. The “Plant response rating, Sugarbeets” value [7, 18] was 0, the “Sugarbeets plant response rating” value [7, 19] was 0 and the “Plant response rating, Sugarbeets” value [7, 20] was 2. For the same compound, the “Sugarbeets plant response rating” value [7, 21] was 2, the “Sugarbeets plant response rating” value [7, 22] was 2 and the “Plant response rating, Sugarbeets” value [7, 23] was 6. The “Bedstraw plant response rating” value [8, 19] was 6, the “Plant response rating, Bedstraw” value [8, 20] was 9 and the “Bedstraw plant response rating” value [8, 21] was 1. For the same compound, the “Bedstraw plant response rating” value [8, 22] was 1, the “Bedstraw plant response rating” value [8, 23] was 10 and the “Plant response rating, B. signalgrass” value [9, 17] was 0. The “Plant response rating, B. signalgrass” value [9, 18] was 3, the “B. signalgrass plant response rating” value [9, 19] was 7 and the “Plant response rating, B. signalgrass” value [9, 20] was 8. The “B. signalgrass plant response rating” value [9, 21] was 7, the “B. signalgrass plant response rating” value [9, 22] was 7 and the “B. signalgrass plant response rating (0 to 10 scale, 0 is no effect, 10 is complete control)” value ([9]; Preemergence, Rate 250 g/ha) was 10. The “B. signalgrass plant response rating” value [9, 23] was 10, the “Plant response rating, Cocklebur” value [10, 17] was 0 and the “Plant response rating, Cocklebur” value [10, 18] was 2. For the same compound, the “Cocklebur plant response rating” value [10, 19] was 2, the “Plant response rating, Cocklebur” value [10, 20] was 3 and the “Cocklebur plant response rating” value [10, 21] was 0. The “Cocklebur plant response rating” value [10, 22] was 0, the “Cocklebur plant response rating (0 to 10 scale)” value ([10]; Preemergence, Rate 250 g/ha) was 0 and the “Plant response rating, Cocklebur” value [10, 23] was 1. For the same compound, the “Plant response rating, Redroot pigweed” value [11, 17] was 0, the “Plant response rating, Redroot pigweed” value [11, 18] was 2 and the “Redroot pigweed plant response rating” value [11, 19] was 3. The “Plant response rating, Redroot pigweed” value [11, 20] was 8, the “Redroot pigweed plant response rating” value [11, 21] was 6 and the “Redroot pigweed plant response rating” value [11, 22] was 8. For the same compound, the “Plant response rating, Redroot pigweed” value [11, 23] was 10, the “Plant response rating, Giant foxtail” value [12, 17] was 8 and the “Plant response rating, Giant foxtail” value [12, 18] was 8. The “Giant foxtail plant response rating” value [12, 19] was 9, the “Plant response rating, Giant foxtail” value [12, 20] was 9 and the “Giant foxtail plant response rating” value [12, 21] was 10. For the same compound, the “Giant foxtail plant response rating” value [12, 22] was 10, the “Plant response rating, Giant foxtail” value [12, 23] was 10 and the “Plant response rating, Rape” value [13, 17] was 0. For the same compound, the “Plant response rating, Rape” value [13, 18] was 0, the “Rape plant response rating” value [13, 19] was 2 and the “Plant response rating, Rape” value [13, 20] was 3. The “Rape plant response rating” value [13, 21] was 3, the “Rape plant response rating” value [13, 22] was 3 and the “Plant response rating, Rape” value [13, 23] was 10. The “Plant response rating, Soybean” value [14, 17] was 5, the “Plant response rating, Soybean” value [14, 18] was 7 and the “Soybean plant response rating” value [14, 19] was 8. The “Plant response rating, Soybean” value [14, 20] was 8, the “Soybean plant response rating” value [14, 21] was 2 and the “Soybean plant response rating” value [14, 22] was 2. For the same compound, the “Plant response rating, Soybean” value [14, 23] was 7, the “Plant response rating, Barnyardgrass (0 to 10 scale, 0 is no effect, 10 is complete control)” value [15, 24] was 0 and the “Barnyardgrass plant response rating (0 to 10 scale, 0 is no effect, 10 is complete control)” value [15, 25] was 0. For the same compound, the “Barnyardgrass plant response rating” value [15, 26] was 0, the “Barnyardgrass plant response rating” value [15, 27] was 5 and the “Plant response rating, Nutsedge” value [16, 17] was 0. The “Plant response rating, Nutsedge” value [16, 18] was 0, the “Nutsedge plant response rating” value [16, 19] was 3 and the “Plant response rating, Nutsedge” value [16, 20] was 3. The “Nutsedge plant response rating” value [16, 21] was 0, the “Nutsedge plant response rating” value [16, 22] was 0 and the “Plant response rating, Nutsedge” value [16, 23] was 2.

Reference: US6737383B1, “Herbicidal oxadiazolidines” (priority 1999, dated 2004)
